Data from patent publication US20230226184A1, “IMPROVEMENTS IN ULTRASOUND-MEDIATED THERAPY” (Bracco Suisse SA, priority 2020, published 2023).

Columns and labels:
[1] = tested on: mesenteric rat microcirculation; test: Vasospasm inhibition by vasospasm inhibitor pre-treatment before US-MV (Examples 4, 7); type: in vivo; settings: for ability to inhibit the vasospasm: Example 7, conditions of Table 6 (P02, US 400 kPa, 5 min); for Vasospasm occurrence (on 3 animals/condition) / Vasospasm occurrence, percent: P02 1.5E+09 MV/kg, 1 bolus, US 400 kPa, 1 ms ON/10 s OFF, 5 min
Protocol: The model used for these experiments was the mesenteric rat microcirculation. Briefly, anesthetized animals were prepared to allow the visualization of an intestinal loop. The injections were made in the tail vein.
Rats were placed under the inverted microscope (Olympus® X2) equipped with a X20 objectives (mag final: 200). A numeric camera, driven by an open source software, acquired and recorded 30 s video at each time points required, in accordance with the protocol.
US treatment was delivered by an experimental single element transducer (unfocused, plane, 1.5 MHz). Table 1 reports the tested US parameters, including the pulse scheme, the acoustic pressure and the duration of US application, for each protocol. The transducer was focus on the optical objective and placed to respect a working distance of 5 cm.
Image sequences were acquired, before, during and after treatment. Additional acquisitions could be performed every 5 min until 40 min after the initiation of US exposure to monitor the vasospasm resolution.
The model used for these experiments was the mesenteric rat microcirculation. The model and animal preparation were described in example 2.
This study aimed at the evaluation of the inhibition of vasospasm induced by a vasospasm inhibitor compound, in particular the dihydropiridine calcium channel blocker nimodipine.
For this purpose, the rats received a pre-treatment with nimodipine, 10 mins before the combined treatment of gas-filled microvesicles and ultrasound for therapy.
Nimodipine (Sigma Aldrich, Switzerland) powder was first diluted in DMSO (40 mg/ml); the injected dose (1.4 mg/kg) was extemporary prepared in NaCl 0.9% and injected 10 min before the treatment.
The treatment parameters were chosen in accordance with the previous studies to obtain the generation of a vasospasm. P01 formulation was administered for this study.
This study aimed at assessing the efficacy of different pharmacological classes of vasospasm inhibitor drugs currently used in clinic on the vasospasm inhibition.
The duration between pre-treatment and injection of microvesicles and ultrasound treatment was in accordance with the pharmacocinetik pharmacokinetics and pharmacodynamics of each drug.

[2] = tested on: mouse DA3 tumor model; test: Tumour perfusion during US-MV treatment followed by contrast echography (Example 5); type: in vivo; settings: Nimodipine 1.4 mg/kg iv 10 min before; P01 1.3E+09 MV/kg, 4 boluses; US 800 kPa, 1 ms ON/15 s OFF, 25 min
Protocol: The mouse DA3 tumor model was used in these studies. The US treatment was delivered by the Verasonic® system (probe P4-2). The probe was placed at 5 cm from the tumor (spaced by a water tank, filled with degassed water). […] The perfusion of each tumor was followed by the echographic signal of microvesicles (Verasonic® system). The signal was recorded and post-analysed with Vuebox® software. […] The expression “replenishment time” indicates the time required to supply the area under the ultrasound beam with the vessel with fresh gas-filled microvesicles, after the substantial destruction of MV caused by each US pulse. The expression “MV destruction” corresponds to the loss of integrity or structure of MV caused by acoustic activation of MV by US. This can be provoked for example by MV collapse or gas dissolution and monitored by acoustic signal follow up. All parameters relative to microvesicles and ultrasound treatment were fixed (see Table 4). The therapeutic insonation parameters were chosen in accordance with the previous studies, to obtain a vascular permeabilization in the DA3 tumor.

[3] = tested on: NMU tumor; test: Tumour perfusion during US-MV treatment followed by contrast echography (Example 6); type: in vivo, rat; settings: Nimodipine 1.4 mg/kg iv 10 min before; P02 1.2E+09 MV/kg, 4 boluses; US 600 kPa, 1 ms ON/15 s OFF, 20 min
Protocol: Pre-pubescent rats (female, Sprague Dawley) received a single intra-peritoneal injection of 50 mg/kg of NMU (N-nitroso-N-methylurea, Sigma, Switzerland). […] Serial bolus injections of gas-filled microvesicles (as specified in Table 5) were performed and the tumor was submitted to therapeutic insonation (frequency, acoustic pressure and pulse characteristics as specified in the subsequent examples). The perfusion of tumor during treatment was assessed as described in Example 5. All parameters relative to microvesicles and ultrasound treatment were fixed (see Table 5). The therapeutic insonation parameters were chosen in accordance with the previous studies, to obtain a vascular permeabilization in the NMU tumor.

[4] = tested on: NMU rat tumor model; test: Extravasation of Cy5.5-labeled 150 kDa-dextran in tumour after US-MV treatment (Example 1); type: in vivo
Protocol: The model used was the NMU rat tumor model. Pre-pubescent rats (female, Sprague Dawley) received a single intra-peritoneal injection of 50 mg/kg of NMU (N-nitroso-N-methylurea, Sigma, Switzerland). Rats developing tumours were enrolled in protocol. In the NMU model, animals can develop several tumours allowing to have tumors receiving microvesicles and ultrasound for therapy; and tumors without ultrasound insonation (called untreated) in the same animal. The rats were anesthetized and placed on dorsal decubitus. A catheter was placed in the tail vein to inject drugs and microvesicles. The US treatment transducer was placed at 5 cm of the tumor (spaced by a water tank). […] To evaluate the efficiency of molecular extravasation, a 150 kDa-dextran labeled with Cy©5.5 fluorophore was injected just before therapeutic treatment with ultrasounds and microvesicles. […] Tumors were then harvested from sacrificed animals; the fluorescence was quantified on image acquired ex vivo (Fluobeam® 700). The fluorescence was quantified by ImageJ software.

[5] = tested on: mesenteric rat microcirculation; test: Vasospasm inhibition by vasospasm inhibitor pre-treatment before US-MV (Examples 4, 7); type: in vivo; settings: Nimodipine 1.4 mg/kg, pre-treatment time 10 min; P02 1.5E+09 MV/kg, 1 bolus; US 400 kPa, 1 ms ON/10 s OFF, 5 min
[6] = Mg^2+ 300 mM, pre-treatment time 0 min
[7] = Prazosin 0.5 mg/kg, pre-treatment time 10 min
[8] = Trinitrine (dose not given), pre-treatment time 1 min

Compound: [Mg+2] [Mg^2+, magnesium]
- ability to inhibit the vasospasm [1]: good ability to inhibit the vasospasm
- Vasospasm occurrence (on 3 animals/condition) [1, 6]: 0/3
- Vasospasm occurrence, percent [1, 6]: 0%

Compound: COCCOC(=O)C1=C(C)NC(C)=C(C(=O)OC(C)C)C1c1cccc([N+](=O)[O-])c1 (stereo not shown) [Nimodipine]
- Decrease of perfusion in tumor, percent [2]: 0%
- Decrease of perfusion in tumor, percent [3]: (100%)
- mean fluorescence value (Cy5.5 dextran in tumour, ex vivo) ([4]; fifth group: VI pre-administration (Nimodipine 1.4 mg/kg, 10 min before) then US-MV, 600 kPa, 1 ms ON/10 s OFF, 20 min): 2060 RFU/px/ms
- mean fluorescence signal (Cy5.5 dextran in tumour, ex vivo) ([4]; third group: VI+MV, no US, Nimodipine 1.4 mg/kg 10 min before, MV P02 or Definity 8 μl gas/kg in 4 boluses): 1030 RFU/px/ms
- Vasospasm occurrence (on 3 animals/condition) [5]: 0/3
- Vasospasm occurrence, percent [5]: 100%

Compound: C[C@H](CS)C(=O)N1CCC[C@H]1C(=O)O [Captoprill, Captopril]
- ability to inhibit the vasospasm [1]: did not show any relevant inhibiting activity

Compound: COc1cc2nc(N3CCN(C(=O)c4ccco4)CC3)nc(N)c2cc1OC [Prazosin]
- ability to inhibit the vasospasm [1]: lower ability
- Vasospasm occurrence (on 3 animals/condition) [1, 7]: 1/3
- Vasospasm occurrence, percent [1, 7]: 33%

Compound: O=[N+]([O-])OCC(CO[N+](=O)[O-])O[N+](=O)[O-] [Trinitrine]
- ability to inhibit the vasospasm [1]: good ability to inhibit the vasospasm
- Vasospasm occurrence (on 3 animals/condition) [1, 8]: 0/3
- Vasospasm occurrence, percent [1, 8]: (0%)
